Earlier results as cited in paper PMC9924909 (Brain, 2022).
Read-outs that look alike come from different tables or passages of the source.

Legend:
[1] = cited from earlier work
patients with GD3 = conditions: cited from earlier work

## CCCCCCCC(=O)N[C@H](CN1CCCC1)[C@H](O)c1ccc2c(c1)OCCO2 [Eliglustat]
[1]
  distribution to the brain: excluded from the brain

## CCCCN1C[C@H](O)[C@@H](O)[C@H](O)[C@H]1CO [Miglustat]
Patients with GD3
  effect on neurological symptoms: ineffective for neurological symptoms
Patients with GD3; listed as miglustat
  effect on neurological symptoms: no clinical benefit
[1]
  distribution to the brain: partially distributed to the brain
